26 compounds from patent US11325936B2, “Sialidase inhibitors and preparation thereof” (The Regents of the University of California, priority 2017, dated 2022) can be followed below.

One test addresses SpNanB (Streptococcus pneumoniae serotype 4, UniProt Q54727, E68D/K536E/K577E/N393D/S59P). Put plainly: Substrate specificity of SpNanB. Particulars: pNP-tagged α2-3-linked sialosides.
A further test has as its system SpNanC. In words: Substrate specificity assay of SpNanC. Particulars: for Percentage conversion (%) by SpNanC: sialoside substrate 0.3 mM, SpNanC (2 μg), Tris-HCl pH 7.0, 30 min, 37° C.; for Cleavage by SpNanC, yield: reactions using 3 μg of SpNanC.

With `O=C(O)C1(OC2C(O)C(CO)OC(Oc3ccc([N+](=O)[O-])cc3)C2O)CC(O)C(O)C(C(O)C(O)CF)O1` (stereo not drawn) [Kdn9Fα2-3GalβpNP], at SpNanB, the “Recognition by SpNanB (substrate specificity)” value (shortened to “Recognition by SpNanB”) is on record as “− (− represents <20% conversion)”. Further, the “Percentage conversion (%) by SpNanC” value with SpNanC came to 3.70 ± 1.14%.

For `[N-]=[N+]=NC1C(O)CC(OC2C(O)C(CO)OC(Oc3ccc([N+](=O)[O-])cc3)C2O)(C(=O)O)OC1C(O)C(O)CO` (stereo not drawn) [Kdn5N3α2-3GalβpNP], at SpNanB, the “Recognition by SpNanB” value is reported as “− (− represents <20% conversion)”. Further, the “Percentage conversion (%) by SpNanC” value with SpNanC was found to be 0.32 ± 0.45%.

Consider `[N-]=[N+]=NCC(=O)N[C@H]1[C@H]([C@H](O)[C@H](O)CO)O[C@@](O[C@H]2[C@@H](O)[C@@H](CO)O[C@@H](Oc3ccc([N+](=O)[O-])cc3)[C@@H]2O)(C(=O)O)C[C@@H]1O` [Neu5AcN3α2-3GalβpNP], for which, on SpNanB, the “Recognition by SpNanB” value is “+ (+ represents >80% conversion)”. Also, the “Percentage conversion (%) by SpNanC” value in the test with SpNanC is on record as 87.9 ± 1.6%.

On to `COCC(O)C(O)C1OC(OC2C(O)C(CO)OC(Oc3ccc([N+](=O)[O-])cc3)C2O)(C(=O)O)CC(O)C1NC(C)=O` (stereo not drawn) [Neu5Ac9OMeα2-3GalβpNP], for which the “Recognition by SpNanB” value at SpNanB was “+ (+ represents >80% conversion)”. In the test on SpNanC, the “Percentage conversion (%) by SpNanC” value is 88.5 ± 5.1%.

For `[N-]=[N+]=NC(C(O)CO)C1OC(OC2C(O)C(CO)OC(Oc3ccc([N+](=O)[O-])cc3)C2O)(C(=O)O)CC(O)C1O` (stereo not drawn) [Kdn7N3α2-3GalβpNP], the “Recognition by SpNanB” value on SpNanB is listed as “− (− represents <20% conversion)”. Also, in the test on SpNanC, the “Percentage conversion (%) by SpNanC” value is reported as 4.50 ± 0.45%.

Consider Neu5Ac7N3α2-3GalβpNP, for which the “Recognition by SpNanB” value on SpNanB is “+ (+ represents >80% conversion)”. In addition, the “Percentage conversion (%) by SpNanC” value in the test with SpNanC is given as 65.9 ± 1.1%.

As for `O=C(CF)NC1C(O)CC(OC2C(O)C(CO)OC(Oc3ccc([N+](=O)[O-])cc3)C2O)(C(=O)O)OC1C(O)C(O)CO` (stereo not drawn) [Neu5AcFα2-3GalβpNP], the “Recognition by SpNanB” value on SpNanB was “+ (+ represents >80% conversion)”. The “Percentage conversion (%) by SpNanC” value with SpNanC is 74.8 ± 3.2%.

As to `COCC(O)C(O)C1OC(OC2C(O)C(CO)OC(Oc3ccc([N+](=O)[O-])cc3)C2O)(C(=O)O)CC(O)C1NC(=O)CO` (stereo not drawn) [Neu5Gc9OMeα2-3GalβpNP], the “Recognition by SpNanB” value on SpNanB is recorded as “+ (+ represents >80% conversion)”. In addition, the “Percentage conversion (%) by SpNanC” value in the test on SpNanC was determined as 75.0 ± 1.9%.

Turning to `COCC(O)C(O)C1OC(OC2C(O)C(CO)OC(Oc3ccc([N+](=O)[O-])cc3)C2O)(C(=O)O)CC(O)C1O` (stereo not drawn) [Kdn9OMeα2-3GalβpNP], at SpNanB, the “Recognition by SpNanB” value is reported as “− (− represents <20% conversion)”. Besides, the “Percentage conversion (%) by SpNanC” value in the test on SpNanC turned out to be 4.02 ± 1.36%.

With `O=C(O)[C@]1(O[C@H]2[C@@H](O)[C@@H](CO)O[C@@H](Oc3ccc([N+](=O)[O-])cc3)[C@@H]2O)C[C@H](O)[C@@H](O)[C@H]([C@H](O)[C@H](O)CO)O1` [Kdnα2-3GalβpNP], the “Recognition by SpNanB” value on SpNanB was “− (− represents <20% conversion)”. The “Percentage conversion (%) by SpNanC” value in the test with SpNanC is reported as 4.50 ± 0.45%.

For `CC(=O)NC1C(O)CC(OC2C(O)C(CO)OC(Oc3ccc([N+](=O)[O-])cc3)C2O)(C(=O)O)OC1C(O)C(C)O` (stereo not drawn) [Neu5Ac9deoxyα2-3GalβpNP], the “Recognition by SpNanB” value on SpNanB is “+ (+ represents >80% conversion)”. In the test with SpNanC, the “Percentage conversion (%) by SpNanC” value stood at 93.5 ± 3.1%.

In the case of `O=C(CO)NC1C(O)CC(OC2C(O)C(CO)OC(Oc3ccc([N+](=O)[O-])cc3)C2O)(C(=O)O)OC1C(O)C(O)CO` (stereo not drawn) [Neu5Gcα2-3GalβpNP], the “Recognition by SpNanB” value at SpNanB is “+ (+ represents >80% conversion)”. The “Percentage conversion (%) by SpNanC” value with SpNanC is recorded as 80.6 ± 6.7%.

`COC(C(O)CO)C1OC(OC2C(O)C(CO)OC(Oc3ccc([N+](=O)[O-])cc3)C2O)(C(=O)O)CC(O)C1NC(C)=O` (stereo not drawn) [Neu5Ac7OMeα2-3GalβpNP]: the “Recognition by SpNanB” value at SpNanB is “+ (+ represents >80% conversion)”. The “Percentage conversion (%) by SpNanC” value in the test on SpNanC is 96.5 ± 1.7%.

As for `O=C(O)[C@@]1(O[C@H]2[C@@H](O)[C@@H](CO)O[C@@H](Oc3ccc([N+](=O)[O-])cc3)[C@@H]2O)C[C@H](O)[C@@H](F)[C@H]([C@H](O)[C@H](O)CO)O1` [Kdn5Fα2-3GalβpNP], the “Recognition by SpNanB” value at SpNanB is reported as “− (− represents <20% conversion)”. In the test on SpNanC, the “Percentage conversion (%) by SpNanC” value was determined as 0.48 ± 0.00%.

On to `CO[C@H]1[C@H]([C@H](O)[C@H](O)CO)O[C@](O[C@H]2[C@@H](O)[C@@H](CO)O[C@@H](Oc3ccc([N+](=O)[O-])cc3)[C@@H]2O)(C(=O)O)C[C@@H]1O` [Kdn5OMe α2-3GalβpNP, Kdn5OMeα2-3GalβpNP], for which the “Recognition by SpNanB” value at SpNanB was “− (− represents <20% conversion)”. The “Percentage conversion (%) by SpNanC” value in the test on SpNanC was 1.53 ± 1.02%.

For `CC(=O)N[C@H]1[C@H]([C@H](O)[C@H](O)CF)O[C@@](O[C@H]2[C@@H](O)[C@@H](CO)O[C@@H](Oc3ccc([N+](=O)[O-])cc3)[C@@H]2O)(C(=O)O)C[C@@H]1O` [Neu5Ac9Fα2-3GalβpNP], the “Recognition by SpNanB” value at SpNanB is listed as “+ (+ represents >80% conversion)”. Besides, the “Percentage conversion (%) by SpNanC” value in the test on SpNanC is given as 75.6 ± 3.9%.

With `CC(=O)N[C@H]1[C@H](C[C@H](O)CO)O[C@@](O[C@H]2[C@@H](O)[C@@H](CO)O[C@@H](Oc3ccc([N+](=O)[O-])cc3)[C@@H]2O)(C(=O)O)C[C@@H]1O` [Neu5Ac7deoxyα2-3GalβpNP], the “Recognition by SpNanB” value at SpNanB is recorded as “+ (+ represents >80% conversion)”. Besides, the “Percentage conversion (%) by SpNanC” value with SpNanC was determined as 91.2 ± 1.8%.

Take `O=C(O)[C@]1(O[C@H]2[C@@H](O)[C@@H](CO)O[C@@H](Oc3ccc([N+](=O)[O-])cc3)[C@@H]2O)C[C@H](O)[C@@H](O)[C@H]([C@H](F)[C@H](O)CO)O1` [Kdn7Fα2-3GalβpNP]: the “Recognition by SpNanB” value on SpNanB is listed as “− (− represents <20% conversion)”. Besides, the “Percentage conversion (%) by SpNanC” value with SpNanC turned out to be 0.56 ± 0.11%.

Take `[N-]=[N+]=NCC(O)C(O)C1OC(OC2C(O)C(CO)OC(Oc3ccc([N+](=O)[O-])cc3)C2O)(C(=O)O)CC(O)C1NC(=O)CO` (stereo not drawn) [Neu5Gc9N3α2-3GalβpNP]: on SpNanB, the “Recognition by SpNanB” value is on record as “+ (+ represents >80% conversion)”. Also, the “Percentage conversion (%) by SpNanC” value in the test with SpNanC is reported as 89.5 ± 3.5%.

For the compound `C[C@@H](O)[C@@H](O)[C@@H]1O[C@@](O[C@H]2[C@@H](O)[C@@H](CO)O[C@@H](Oc3ccc([N+](=O)[O-])cc3)[C@@H]2O)(C(=O)O)C[C@H](O)[C@H]1NC(=O)CO` [Neu5Gc9deoxyα2-3GalβpNP], the “Recognition by SpNanB” value at SpNanB is listed as “+ (+ represents >80% conversion)”. Further, in the test with SpNanC, the “Percentage conversion (%) by SpNanC” value came to 85.5 ± 1.4%.

On to `O=C(O)C1(OC2C(O)C(CO)OC(Oc3ccc([N+](=O)[O-])cc3)C2O)CC(O)CC(C(O)C(O)CO)O1` (stereo not drawn) [Kdn5deoxyα2-3GalβpNP], for which, on SpNanB, the “Recognition by SpNanB” value was “− (− represents <20% conversion)”. For the same compound, the “Percentage conversion (%) by SpNanC” value with SpNanC is 5.31 ± 0.23%.

Turning to `CC(=O)NC1C(O)CC(OC2C(O)C(CO)OC(Oc3ccc([N+](=O)[O-])cc3)C2O)(C(=O)O)OC1C(F)C(O)CO` (stereo not drawn) [Neu5Ac7Fα2-3GalβpNP], the “Recognition by SpNanB” value at SpNanB is “+ (+ represents >80% conversion)”. Further, in the test with SpNanC, the “Percentage conversion (%) by SpNanC” value was 91.0 ± 4.3%.

Turning to `CO[C@@H]([C@@H]1O[C@](O[C@H]2[C@@H](O)[C@@H](CO)O[C@@H](Oc3ccc([N+](=O)[O-])cc3)[C@@H]2O)(C(=O)O)C[C@H](O)[C@H]1O)[C@H](O)CO` [Kdn7OMeα2-3GalβpNP], the “Recognition by SpNanB” value at SpNanB is recorded as “− (− represents <20% conversion)”. Besides, in the test with SpNanC, the “Cleavage by SpNanC, yield” value amounted to 23% and the “Percentage conversion (%) by SpNanC” value is given as 23.4 ± 3.3%.

For `O=C(O)C1(OC2C(O)C(CO)OC(Oc3ccc([N+](=O)[O-])cc3)C2O)CC(O)C(O)C(CC(O)CO)O1` (stereo not drawn) [Kdn7deoxyα2-3GalβpNP], the “Recognition by SpNanB” value on SpNanB is reported as “− (− represents <20% conversion)”. In the test on SpNanC, the “Cleavage by SpNanC, yield” value worked out at 10% and the “Percentage conversion (%) by SpNanC” value is 10.1 ± 0.0%.

Regarding `COCC(=O)NC1C(O)CC(OC2C(O)C(CO)OC(Oc3ccc([N+](=O)[O-])cc3)C2O)(C(=O)O)OC1C(O)C(O)CO` (stereo not drawn) [Neu5AcOMeα2-3GalβpNP], on SpNanB, the “Recognition by SpNanB” value is “+ (+ represents >80% conversion)”. Further, the “Percentage conversion (%) by SpNanC” value with SpNanC is 81.8 ± 1.7%.

As to `O=C(CO)NC1C(O)CC(OC2C(O)C(CO)OC(Oc3ccc([N+](=O)[O-])cc3)C2O)(C(=O)O)OC1C(O)C(O)CF` (stereo not drawn) [Neu5Gc9Fα2-3GalβpNP], on SpNanB, the “Recognition by SpNanB” value is recorded as “+ (+ represents >80% conversion)”. Moreover, the “Percentage conversion (%) by SpNanC” value in the test with SpNanC was 72.3 ± 2.6%.
